Results reported in patent US9301933B2, “Compositions and methods for treating presbyopia, mild hyperopia, and irregular astigmatism” (ALLERGAN, INC., priority 2011, dated 2016).
Several values for one entry are separate records, joined by “and”; a condition that tells them apart may be missing. Identical values can stand only once.

Legend:
patients' eyes = conditions: cited from earlier work
[1] = tested on: eyes of presbyopic (emmetropic or slightly hyperopic) patients; assay: Unaided distance visual acuity (UDVA), Snellen chart; assay type: in vivo, human; conditions: Example 3
Description: (§1) A group of 10 patients (20 eyes) considered emmetropes or slightly hyperopic (Spherical equivalent from +0.88 D to −0.13 D with less than 1.00 D of astigmatism) was treated with a composition of the invention.
(§2) One drop containing 1% pilocarpine and 0.025% oxymetazoline w/w dissolved in a solution of 0.5% sodium chloride, with carboxymethyl cellulose as a viscosant and benzalkonium chloride as preservative were instilled once into the right eye, and the same solution containing 1% pilocarpine without oxymetazoline was instilled once into the left eye and the same measurements were taken one hour, four hours and six hours later. (Each patient acted as its own control) (Table 2). […]

[2] = tested on: eyes of presbyopic (emmetropic or slightly hyperopic) patients; assay: Unaided near visual acuity (UNVA) at 40 centimeters, hand-held Rosembaum chart, Jaeger notation; assay type: in vivo, human; design: key to 1 h UNVA: J1+ is fine “normal” near vision (equivalent to 20/20 in Snellen terms); J1 is good near vision (equivalent to 20/25 in Snellen terms); J2 and J3 are fair and functional near vision, respectively (equivalent to 20/30 and 20/40, respectively, in Snellen terms); J2 and J3 are fair and functional near vision, respectively (equivalent to 20/30 and 20/40, respectively, in Snellen terms); conditions: Example 3
Description: Measurements on the Jaeger scale, a near vision scale, are used and described herein. […]
as §1, §2

[3] = tested on: eyes of presbyopic (emmetropic or slightly hyperopic) patients; assay: Refractive power of each eye (sphere, cylinder, spherical equivalent); assay type: in vivo, human; conditions: Example 3
Excerpt: The following terms are ophthalmic terms commonly used by those of skill in the art. “OD” stands for oculus dexter and means right eye. “OS” stands for oculus sinister and means left eye. “UDVA” stands for unaided distance visual acuity. “UNVA” stands for unaided near visual acuity. “Sph” is the sphere, or the amount of magnification/demagnification that the eye needs to see properly. A negative sphere indicates myopia, and a positive sphere indicates hyperopia. “Cyl” is the cylinder, which is a measure of astigmatism. “Pre” indicates the condition of the eye prior to treatment, 1 h indicates the condition of the eye 1 hour after treatment, 4 h indicates the condition of the eye 4 hours after treatment, and 6 h indicates the condition of the eye 6 hours after treatment. “Sph Eq” is the spherical equivalent.
A group of 10 patients (20 eyes) considered emmetropes or slightly hyperopic (Spherical equivalent from +0.88 D to −0.50 D with less than 1.00 D of astigmatism) was treated with a composition of the invention.
Three drops containing 1% pilocarpine and 0.125% oxymetazoline w/w dissolved in a solution of 0.5% sodium chloride, with carboxymethyl cellulose as a viscosant and benzalkonium chloride as preservative were instilled into each eye three times separated 5 minutes each, and the same measurements were taken one hour, four hours and six hours later (Table 1). As shown in Table 1 and FIGS. 1-2, there was an average gain of 3.7 units of unaided near visual acuity while losing 0.7 lines of uncorrected distance visual acuity at one hour after instillation. […] The improvement in near vision was more pronounced in younger patients and the lack of detriment of the distance vision (FIG. 2) was more marked in hyperopic patients. […]
After a two-week washout period, five of the patients from example 1 were treated with a combination of 1% pilocarpine and 0.015% meloxicam dissolved in a solution of 0.5% sodium chloride in water plus carboxymethyl cellulose as viscosant and benzalkonium chloride as a preservative, and the same measurements in example 1 were taken at one hour, four hours, and eight hours later. […]

pupil of patients' eyes = assay: Pupillary diameter in medium lighting (mesopic) conditions, infrared camera device; assay type: in vivo, human; conditions: Example 3
Description: as §1, §2

In the case of `Brc1c(NC2=NCCN2)ccc2nccnc12` [brimonidine], the “side effects of topical administration” value (patients' eyes; known to those in the art) is listed as “lightheadedness, dizziness, dry mouth, tachycardia, and stomach upset”.

For `O=C(O)Cc1ccccc1Nc1c(Cl)cccc1Cl` [diclofenac], the “serious side effects (Congdon et al.)” value (patients' eyes; topical ophthalmic use) is listed as “persistent epithelial defects, corneal melting, and corneal perforation”.

With `CC[C@@H]1C(=O)OC[C@@H]1Cc1cncn1C` [Pilocarpine alone, pilocarpine] the “decrease in distance vision, compared with pilocarpine + oxymetazoline” value ([1]; FIG. 4, at the 1 and 4 hour time points) was “more decrease in distance vision”, the “1 h UDVA” value ([1]; one drop once, OD 1% pilocarpine + 0.025% oxymetazoline, OS 1% pilocarpine alone, single eyes, 1 h) was 20/50 and 20/30 and 20/40 and the “4 h UDVA” value ([1]; one drop once, OD 1% pilocarpine + 0.025% oxymetazoline, OS 1% pilocarpine alone, single eyes, 4 h) was 20/40 and 20/20 and 20/30 and 20/25 and 20/50. For the same molecule, the “6 h UDVA” value ([1]; one drop once, OD 1% pilocarpine + 0.025% oxymetazoline, OS 1% pilocarpine alone, single eyes, 6 h) was 20/30 and 20/20 and 20/25, the “improvement in near vision, compared with pilocarpine + oxymetazoline” value ([2]; FIG. 3) was “smaller and tended to wear out earlier” and the “1 h UNVA” value ([2]; one drop once, OD 1% pilocarpine + 0.025% oxymetazoline, OS 1% pilocarpine alone, single eyes of 10 patients, 1 h) was “J1 and J1+ and J2 and J3”. For the same molecule, the decrease in hyperopia (patients' eyes; one patient, 0.3% topical pilocarpine, U.S. Pat. Nos. 6,291,466 and 6,410,544) was “less than half”, the tolerability (patients' eyes; topical concentrations above 0.5%) was “not tolerated due to side effects such as red eyes, ocular pain, brow ache, and headache” and the “effect in the accommodation of the eye” value (patients' eyes; topical concentrations below 0.5%) was “minimal effect”. The induced astigmatism [3] was “seemed to induce more astigmatism”, the “1 h Cyl, AVERAGE” value ([3]; average per treatment, 1 h) was −0.59 and the “1 h Sph Eq, AVERAGE” value ([3]; average per treatment, 1 h) was −0.61. The “1 h Sph, AVERAGE” value ([3]; average per treatment, 1 h) was −0.32, the “4 h Cyl, AVERAGE” value ([3]; average per treatment, 4 h) was −0.59 and the “4 h Sph Eq, AVERAGE” value ([3]; average per treatment, 4 h) was −0.43. For the same molecule, the “4 h Sph, AVERAGE” value ([3]; average per treatment, 4 h) was −0.14, the “6 h Cyl, AVERAGE” value ([3]; average per treatment, 6 h) was −0.43 and the “6 h Sph Eq, AVERAGE” value ([3]; average per treatment, 6 h) was 0.35. For the same molecule, the “6 h Sph, AVERAGE” value ([3]; average per treatment, 6 h) was 0.57, the “1 h Pupil” value (pupil of patients' eyes; OD 1% pilocarpine + 0.025% oxymetazoline, OS 1% pilocarpine alone, single eyes, 1 h) was 2.1 and 2.3 and 2.2 and 2.4 and 2.5 and the “4 h Pupil” value (pupil of patients' eyes; OD 1% pilocarpine + 0.025% oxymetazoline, OS 1% pilocarpine alone, single eyes, 4 h) was 2.7 and 2.8 and 2.5 and 2.9 and 2.4 and 3 and 2.6 and 3.1. The “6 h Pupil” value (pupil of patients' eyes; OD 1% pilocarpine + 0.025% oxymetazoline, OS 1% pilocarpine alone, single eyes, 6 h) was 4.9 and 4.7 and 4.4 and 4.2 and 4.1, the “1 h Pupil, AVERAGE” value (pupil of patients' eyes; average per treatment, 1 h) was 2.05 and the “4 h Pupil, AVERAGE” value (pupil of patients' eyes; average per treatment, 4 h) was 2.52. For the same molecule, the “6 h Pupil, AVERAGE” value (pupil of patients' eyes; average per treatment, 6 h) was 4.13.
